In patent US20240277658A1, “NLRP3 ACTIVATORS FOR USE IN THE TREATMENT OF INFECTIOUS DISEASES OR CANCER BY ACTIVATING NLRP3 INFLAMMASOME” (ALBERT-LUDWIGS-UNIVERSITÄT FREIBURG, priority 2020, published 2024):
Values joined by “and” are separate entries in the source; they are usually repeats but may differ in a detail not shown here. Identical values can stand only once. Like-named read-outs stand apart in the source and are kept apart here.

Legend:
BMDCs = test: LDH release (lytic cell death, pyroptosis) from LPS-primed BMDCs; assay type: cell-based, mouse; settings: for Average (% positive control): LDH release; for cytotoxicity at 25 µM / cytotoxicity at 50 µM / cytotoxicity at 100 µM: Mus musculus, BMDC
Outline: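 Mouse BMDCs (7-9 days differentiated, GM-CSF) primed with 50 ng ml^−1 E. coli K12 LPS for 3 hours, then exposed 3 hours to compounds (50 μM unless indicated) or activators (nigericin 5 μM; R837, CL097 100 μM). Lytic death measured as LDH release by colorimetric assay, triplicate wells.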

NLRP3 inflammasome [1] = target: T1, NLRP3 inflammasome (Mus musculus, UniProt Q8R4B8); test: IL-1β release from LPS-primed BMDCs (ELISA) as readout of NLRP3 inflammasome activation; assay type: cell-based; settings: for Average (% positive control): IL-1β release; for IL-1β: single replicates
T1 construct: endogenous in cells; host or cells: primary mouse bone marrow-derived dendritic cells (BMDCs), LPS-primed
Outline: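 NLRP3 inflammasome activation was read out as IL-1β released into the supernatant, measured by ELISA. Murine BMDCs were primed with LPS (50 ng ml^−1, 3 hours), then incubated with compounds for 3 hours, with each condition run in three technical replicates. Nigericin at 5 μM acted as the positive control activator, and IL-1β release was also expressed as a percentage of that control.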

[2] = tested on: mitochondrial respiration; settings: Groß et al., Immunity 2016; cited from earlier work
TLR7/TLR8 = settings: background statement; cited from earlier work
NLRP3 = test: Inflammasome stimulation (IL-1β, LDH release) in BMDCs from NLRP3 knockout or ASC knockout mice; assay type: cell-based, mouse; settings: IL-1β and LDH release
Description: (§1) For canonical inflammasome activation BMDCs after 7-9 days of differentiation were harvested and counted with a Neubauer Chamber (Hecht Assistant) and the concentration was set to 1 Mio cells ml^−1. 100 μl cell suspension per well were seeded in 96-well plates. The cells were primed with 50 ng ml^−1 E. coli K12 ultra-pure LPS for 3 hours and subsequently treated with canonical inflammasome activators or experimental compounds for 3 hours if not indicated differently (incubation time FIG. 4D, 5, 7, 8, 11, 13-18: 3 h, FIG. 12: 4 h). Concentrations of the stimuli were as follows if not indicated differently: 5 μM nigericin, 100 μM imiquimod (also known as R837), 100 μM CL097, 100 μM R848, […] poly(dA:dT), 300 μg ml^−1 MSU. If an inhibitor was used before stimuli treatment, the inhibitor was added after 2.5 hours of priming and it was incubated for 30 minutes before inflammasome activation. Inhibitors were used as follows: 3 μM MCC950, 45 mM KCl, 30 μM ebselen (2-Phenyl-1,2-benzoselenazol-3-one), 5 μM cytochalasin D (see FIGS. 8, 11, 12 and 17).
(§2) All inflammasome stimulations were performed in three technical replicates for each condition. Lytic cell death was determined via LDH release (see FIGS. 8, 13-16 and 18), cytokines quantified in cell-free supernatants via ELISA (see FIGS. 4D, 7-9, 11-19) and cell lysates and supernatants analyzed via immunoblotting (see FIGS. 5A and 5B) as previously described in detail (Gross, Olaf, 2012 “Measuring the inflammasome”, Methods in molecular biology, Clifton, N.J., 844, pp. 199-222. Schneider, Katharina S.; Thomas, Christina J.; Groß, Olaf, 2013, “Inflammasome activation and inhibition in primary murine bone marrow-derived cells, and assays for IL-1α, IL-1β, and caspase-1”, Methods in molecular biology, Clifton, N.J., 1040, pp. 117-135).

NLRP3 inflammasome [3] = target: T1, NLRP3 inflammasome; test: Inflammasome stimulation of BMDCs after pre-incubation with inhibitors (MCC950, KCl, ebselen, cytochalasin D); assay type: cell-based; settings: 50 mM extracellular KCl; FIGS. 11 and 17
Description: as §1, with “Inhibitors were used as follows: 3 μM MCC950, 45 mM KCl, 30 μM ebselen (2-Phenyl-1,2-benzoselenazol-3-one), 5 μM cytochalasin D (see FIGS. 8, 11, 12 and 17).” left out
as §2

[4] = 100 μM, positive control nigericin 5 μM
[5] = section 1.2, 25 μM, positive control EN22 25 μM
[6] = section 1.2, 50 μM, positive control EN22 25 μM
[7] = section 1.2, 100 μM, positive control EN22 25 μM

T1 sequence (Q8R4B8 whole entry): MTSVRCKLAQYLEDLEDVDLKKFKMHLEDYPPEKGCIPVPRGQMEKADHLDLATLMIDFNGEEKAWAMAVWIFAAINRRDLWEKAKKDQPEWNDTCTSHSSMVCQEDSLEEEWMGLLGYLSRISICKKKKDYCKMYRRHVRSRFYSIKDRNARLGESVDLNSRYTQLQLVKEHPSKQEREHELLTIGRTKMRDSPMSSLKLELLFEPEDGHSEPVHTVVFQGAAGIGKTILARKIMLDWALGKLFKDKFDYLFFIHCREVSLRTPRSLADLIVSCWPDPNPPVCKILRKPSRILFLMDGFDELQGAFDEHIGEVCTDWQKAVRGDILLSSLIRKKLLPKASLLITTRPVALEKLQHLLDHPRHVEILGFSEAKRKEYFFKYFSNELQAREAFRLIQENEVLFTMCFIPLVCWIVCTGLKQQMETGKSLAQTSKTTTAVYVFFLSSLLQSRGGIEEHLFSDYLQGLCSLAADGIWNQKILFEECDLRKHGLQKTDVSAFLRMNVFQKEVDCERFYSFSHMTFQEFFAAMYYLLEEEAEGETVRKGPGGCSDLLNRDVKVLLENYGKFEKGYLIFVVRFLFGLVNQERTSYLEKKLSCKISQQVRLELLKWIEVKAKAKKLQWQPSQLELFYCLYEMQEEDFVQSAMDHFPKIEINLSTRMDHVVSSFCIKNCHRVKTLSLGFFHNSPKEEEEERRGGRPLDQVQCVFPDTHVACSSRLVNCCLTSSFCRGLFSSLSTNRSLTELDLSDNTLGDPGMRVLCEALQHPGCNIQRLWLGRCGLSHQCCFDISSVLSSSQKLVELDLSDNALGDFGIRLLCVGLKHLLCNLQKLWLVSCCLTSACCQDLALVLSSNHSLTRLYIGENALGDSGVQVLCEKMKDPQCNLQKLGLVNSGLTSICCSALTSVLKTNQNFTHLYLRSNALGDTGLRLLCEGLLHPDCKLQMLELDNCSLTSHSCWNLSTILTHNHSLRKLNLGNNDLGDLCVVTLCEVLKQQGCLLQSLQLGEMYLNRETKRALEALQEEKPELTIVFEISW

CCOCc1nc2c([nH]1)c(N)nc1ccccc12 [CL097, reference compound]
Average LDH release (% of max.) (BMDCs; 100 μM, LPS-primed BMDCs): 68.096 % of max.
Average (% positive control) (BMDCs; [4]): 93.083 % positive control
LDH release (% of max.) (BMDCs; single replicates, 100 μM, LPS-primed BMDCs): 56.511 % of max. and 69.145 % of max. and 62.611 % of max. and 76.051 % of max. and 68.018 % of max. and 76.242 % of max.
Average IL-1β (NLRP3 inflammasome [1]; 100 μM, LPS-primed BMDCs): 8.570 ng/mL
Average (% positive control) (NLRP3 inflammasome [1]; [4]): 119.560 % positive control
IL-1β (NLRP3 inflammasome [1]; 100 μM, LPS-primed BMDCs): 7.355 ng/mL and 8.020 ng/mL and 8.660 ng/mL and 8.522 ng/mL and 9.540 ng/mL and 9.324 ng/mL
inhibition of cellular respiration (mitochondrial electron transport chain) [2]: inhibit cellular respiration
activation of toll-like receptor-7 (TLR7) and/or TLR8 (TLR7/TLR8): activate

O=C(Nc1ccc2ncccc2c1)Nc1ccc2ncccc2c1 [EN-A, 1,3-di(quinolin-6-yl)urea]
cytotoxicity at 25 µM (BMDCs; section 1.2, 25 μM, read-out: Average LDH release (% of max.)): 33.1%
cytotoxicity at 50 µM (BMDCs; section 1.2, 50 μM, read-out: Average LDH release (% of max.)): 32.4%
cytotoxicity at 100 µM (BMDCs; section 1.2, 100 μM, read-out: Average LDH release (% of max.)): 33%
cytotoxicity at 25 µM (BMDCs; section 1.2, single replicates, 25 μM, read-out: LDH release (% of max.)): 33.7%
cytotoxicity at 50 µM (BMDCs; section 1.2, single replicates, 50 μM, read-out: LDH release (% of max.)): 32.1%
cytotoxicity at 100 µM (BMDCs; section 1.2, single replicates, 100 μM, read-out: LDH release (% of max.)): 34.8%
Average (% positive control) (BMDCs; [5]): 110.581 % positive control
Average (% positive control) (BMDCs; [6]): 108.112 % positive control
Average (% positive control) (BMDCs; [7]): 110.157 % positive control
characteristics of inflammasome activation in cells isolated from NLRP3 knockout mice (NLRP3): do not occur
Average IL-1β (NLRP3 inflammasome [1]; section 1.2, 25 μM): 4.696 ng/mL
Average IL-1β (NLRP3 inflammasome [1]; section 1.2, 50 μM): 5.026 ng/mL
Average IL-1β (NLRP3 inflammasome [1]; section 1.2, 100 μM): 5.084 ng/mL
Average (% positive control) (NLRP3 inflammasome [1]; [5]): 93.430 % positive control
Average (% positive control) (NLRP3 inflammasome [1]; [6]): 100.007 % positive control
Average (% positive control) (NLRP3 inflammasome [1]; [7]): 101.159 % positive control
IL-1β (NLRP3 inflammasome [1]; section 1.2, 25 μM): 5.256 ng/mL and 4.576 ng/mL and 4.256 ng/mL
IL-1β (NLRP3 inflammasome [1]; section 1.2, 50 μM): 4.819 ng/mL and 5.538 ng/mL and 4.722 ng/mL
IL-1β (NLRP3 inflammasome [1]; section 1.2, 100 μM): 5.256 ng/mL and 5.328 ng/mL and 4.669 ng/mL
dependence of NLRP3 inflammasome activation on potassium efflux from the cell (NLRP3 inflammasome [3]): independently of potassium efflux

CC(C)Cn1cnc2c(N)nc3ccccc3c21 [imiquimod, reference compound]
Average (% positive control) (BMDCs; [4]): 35.494 % positive control
cytotoxicity at 100 µM (BMDCs; 100 μM, LPS-primed BMDCs, read-out: Average LDH release (% of max.)): 26%
Average IL-1β (NLRP3 inflammasome [1]; 100 μM, LPS-primed BMDCs): 2.376 ng/mL
Average (% positive control) (NLRP3 inflammasome [1]; [4]): 33.144 % positive control
IL-1β (NLRP3 inflammasome [1]; 100 μM, LPS-primed BMDCs, listed as R837): 5.472 ng/mL and 4.151 ng/mL and 1.552 ng/mL and 1.212 ng/mL and 0.958 ng/mL and 0.911 ng/mL
inhibition of cellular respiration (mitochondrial electron transport chain) [2]: inhibit cellular respiration
activation of toll-like receptor-7 (TLR7) and/or TLR8 (TLR7/TLR8): activate
